The results in this text go back to patent US20200069691A1, “HETEROCYCLIC COMPOUNDS AS HIV PROTEASE INHIBITORS” (Merck Sharp & Dohme Corp., priority 2016, published 2020).

As a reminder, the IC50 is the concentration that gives 50% inhibition.

The experiment concerns the target T1, wild-type HIV-1 protease (Human immunodeficiency virus type 1 group M subtype B, UniProt P04585).
T1 construct: Escherichia coli expressed wild-type HIV-1 protease protein
The experiment in a line: Assay for Inhibition of Microbial Expressed HIV Protease (peptide substrate cleavage, LC-MS/MS readout). Format: biochemical. The conditions noted are these: E. coli expressed wild-type HIV-1 protease, mean of at least two independent experiments, read-out: HIV Pr Enzyme HIV1 PR IC50. The essentials: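 Cleavage of Val-Ser-Gln-Asn-(β-naphthyl)Ala-Pro-Ile-Val (400 μM) by recombinant HIV-1 protease ([…]) ran 1 h at 30 °C after a 30 min room-temperature inhibitor preincubation in 50 mM sodium acetate pH 5.5. Product peak areas by LC-MS/MS gave inhibition; values average at least two independent runs.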
In the case of `COC(=O)N1CCN(C(=O)c2cccc(CN3C(=N)NC(c4ccc(F)cc4)(c4cccc(C(N)=O)c4)C3=O)c2)CC1` (stereo not drawn) [Compound 347, methyl 4-[(3-{[4-(3-carbamoylphenyl)-4-(4-fluorophenyl)-2-imino-5-oxoimidazolidin-1-yl]methyl}phenyl)-carbonyl]piperazine-1-carboxylate], the IC50 was found to be 83.3 nM.

`CC(=O)N1CCN(C(=O)c2cc(CN3C(=N)N[C@](CCCC(F)(F)F)(c4ccc(F)cc4)C3=O)ccc2C(F)(F)F)CC1` [Compound 109, (5R)-3-{3-[(4-acetylpiperazin-1-yl)carbonyl]-4-(trifluoromethyl)-benzyl}-5-(4-fluorophenyl)-2-imino-5-(4,4,4-trifluorobutyl)-imidazolidin-4-one]: the IC50 was determined as 26.5 nM. Then `COC(=O)N1CCN(C(=O)c2cccc(CN3C(=N)NC(CCC(C)C)(c4ccc(F)cc4)C3=O)c2)CC1` (stereo not drawn) [Compound 239, methyl 4-[(3-{[4-(4-fluorophenyl)-2-imino-4-(3-methylbutyl)-5-oxoimidazolidin-1-yl]methyl}phenyl)carbonyl] piperazine-1-carboxylate], with 15.1 nM; and `CC(C)C[C@]1(c2ccccc2)NC(=N)N(Cc2ccc(C(F)(F)F)c(C(=O)N3Cc4nccnc4C3)c2)C1=O` [Compound 149, (5R)-3-[3-(5,7-dihydro-6H-pyrrolo[3,4-b]pyrazin-6-ylcarbonyl)-4-(trifluoromethyl)-benzyl]-2-imino-5-(2-methylpropyl)-5-phenyl-imidazolidin-4-one], with 5.24 nM; and `CC(C)CCC1(c2ccc(F)cc2)NC(=N)N(Cc2ccc(C(F)(F)F)c(C(=O)N3C[C@@H]4C(=O)NC(=O)[C@]4(c4ccccc4)C3)c2)C1=O` (stereo partly drawn) [Compound 159, (3aR,6aR)-5-{[5-{[4-(4-fluorophenyl)-2-imino-4-(3-methylbutyl)-5-oxoimidazolidin-1-yl]methyl}-2-(trifluoromethyl)-phenyl]carbonyl}-3a-phenyltetrahydropyrrolo [3,4-c]pyrrole-1,3 (2H,3aH)-dione], with 15.9 nM. With `CC(C)CCC1(c2ccc(F)cc2)NC(=N)N(Cc2ccc(C(F)(F)F)c(C(=O)N3Cc4nc(-c5ccccc5)oc4C3)c2)C1=O` (stereo not drawn) [Compound 158, 5-(4-fluorophenyl)-2-imino-5-(3-methylbutyl)-3-{3-[(2-phenyl-4,6-dihydro-5H-pyrrolo[3,4-d][1,3]oxazol-5-yl)carbonyl]-4-(trifluoromethyl)benzyl} imidazolidin-4-one] the figure was 15.8 nM; with `C[S+]([O-])c1cccc(-c2ncc3c(n2)CN(C(=O)c2cc(CN4C(=N)N[C@](CCCC(F)(F)F)(c5ccc(F)cc5)C4=O)ccc2C(F)(F)F)C3)c1` (stereo partly drawn) [Compound 21, (5R)-5-(4-fluorophenyl)-2-imino-3-[3-({2-[3-(methylsulfmyl)phenyl]-5,7-dihydro-6H-pyrrolo[3,4-d]pyrimidin-6-yl}carbonyl)-4-(trifluoromethyl)benzyl]-5-(4,4,4-trifluorobutyl)imidazolidin-4-one], 2.31 nM. Take `N=C1N[C@](C[C@@H]2CCOC2)(c2ccccc2)C(=O)N1Cc1ccc(C(F)(F)F)c(C(=O)N2Cc3nccnc3C2)c1` [Compound 128, (5R)-3-[3-(5,7-dihydro-6H-pyrrolo[3,4-b]pyrazin-6-ylcarbonyl)-4-(trifluoromethyl)-benzyl]-2-imino-5-phenyl-5-[(3R)-tetrahydrofuran-3-ylmethyl]-imidazolidin-4-one]: the IC50 came to 67.9 nM. In the case of `N=C1NC(c2ccccc2)(c2ccccc2)C(=O)N1Cc1cccc(C(=O)N2CCc3ccc(C(F)(F)F)cc3C2)c1` [Compound 334, 2-imino-5,5-diphenyl-3-(3-{[7-(trifluoromethyl)-3,4-dihydroisoquinolin-2(1H)-yl]carbonyl}benzyl) imidazolidin-4-one], the half-inhibitory concentration (IC50) worked out at 70 nM.

In the case of `CC(C)C[C@]1(c2ccccc2)NC(=N)N([C@H](C)c2cccc(C(=O)N3Cc4nccnc4C3)c2)C1=O` [Compound 237, 3-{(1R)-1-[3-(5,7-dihydro-6H-pyrrolo[3,4-b]pyrazin-6-ylcarbonyl)phenyl]ethyl}-2-imino-5-(2-methylpropvl)-5-phenylimidazolidin-4-one], the half-inhibitory concentration (IC50) was 14.5 nM. `CC(C)CCC(c1ccc(C(F)(F)F)c(C(=O)N2Cc3nccnc3C2)c1)N1C(=N)N[C@](CCC(C)C)(c2ccccc2)C1=O` (stereo partly drawn) [Compound 9, (5R)-3-{1-[3-(5,7-dihydro-6H-pyrrolo[3,4-b]pyrazin-6-ylcarbonyl)-4-(trifluoromethyl)phenyl]-4-methylpentyl}-2-imino-5-(3-methylbutyl)-5-phenylimidazolidin-4-one]: the IC50 came to 0.6 nM.

For the compound `N=C1NC(CCC2CC2)(c2ccc(C(F)(F)F)cc2)C(=O)N1Cc1ccc(C(F)(F)F)c(C(=O)N2CCn3c(nnc3C(F)(F)F)C2)c1` (stereo not drawn) [Compound 131, 5-(2-cyclopropylethyl)-2-imino-5-[4-(trifluoromethyl)phenyl]-3-[4-(trifluoromethyl)-3-{[3-(trifluoromethyl)-5,6-dihydro-[1,2,4]triazolo[4,3-a]pyrazin-7(8H)-yl]carbonyl}benzyl] imidazolidin-4-one], the IC50 turned out to be 84.9 nM. Take `N=C1N[C@](CCCC(F)(F)F)(c2ccc(F)cc2)C(=O)N1Cc1ccc(C(F)(F)F)c(C(=O)N2Cc3cnc(-c4ccsc4)nc3C2)c1` [Compound 63, (5R)-5-(4-fluorophenyl)-2-imino-3-{3-[(2-thiophen-3-yl-5,7-dihydro-6H-pyrrolo[3,4-d]pyrimidin-6-yl)carbonyl]-4-(trifluoromethyl)-benzyl}-5-(4,4,4-trifluorobutyl)-imidazolidin-4-one]: the IC50 came out at 6.94 nM. Consider `CNC(=O)c1nc2n(c1Cl)CCN(C(=O)c1cccc(CN3C(=N)NC(c4ccccc4)(c4ccccc4)C3=O)c1)C2` [Compound 251, 3-chloro-7-({3-[(2-imino-5-oxo-4,4-diphenylimidazolidin-1-yl)methyl]phenyl}carbonyl)-N-methyl-5,6,7,8-tetrahydroimidazo[1,2-a]pyrazine-2-carboxamide], for which the IC50 was 19.2 nM. With `N=C1NC(c2ccccc2)(c2ccccc2)C(=O)N1Cc1cccc(C(=O)N2CCc3nccnc3C2)c1` [Compound 295, 3-[3-(7,8-dihydropyrido[3,4-b]pyrazin-6(5H)-ylcarbonyl)benzyl]-2-imino-5,5-diphenylimidazolidin-4-one], the IC50 was 40.1 nM. Turning to `CSc1nnc2n1CCN(C(=O)c1cc(CN3C(=N)N[C@](CCCC(F)(F)F)(c4ccc(F)cc4)C3=O)ccc1C(F)(F)F)C2` [Compound 50, (5R)-5-(4-fluorophenyl)-2-imino-3-[3-{[3-(methylsulfanyl)-5,6-dihydro[1,2,4]triazolo[4,3-a]pyrazin-7(8H)-yl]carbonyl}-4-(trifluoromethyl)benzyl]-5-(4,4,4-trifluorobutyl)imidazolidin-4-one], the IC50 is 5.49 nM. With `N=C1NC(c2ccccc2)(c2ccccc2)C(=O)N1Cc1cccc(C(=O)N2Cc3ccc(C(F)(F)F)cc3C2)c1` [Compound 233, 2-imino-5,5-diphenyl-3-(3-{[5-(trifluoromethyl)-1,3-dihydro-2H-isoindol-2-yl]carbonyl}benzyl)-imidazolidin-4-one] the figure was 14 nM. As to `CC(C)CCC1(c2cccc(F)c2)NC(=N)N(Cc2cccc(C(=O)N3Cc4ccccc4C3)c2)C1=O` (stereo not drawn) [Compound 270, 3-[3-(1,3-dihydro-2H-isoindol-2-ylcarbonyl)benzyl]-5-(3-fluorophenyl)-2-imino-5-(3-methylbutyl)imidazolidin-4-one], the IC50 is 27 nM.
